# Experimental data taken from US9149465B2, “Isoxazolines as inhibitors of fatty acid amide hydrolase” (Infinity Pharmaceuticals, Inc., priority 2009, dated 2015).
# Target: T1, human FAAH (Homo sapiens, UniProt O00519)
# T1 construct: host or cells: COS-7 cells, transient transfection; 13,000 g membrane fraction solubilised in 1% Triton X-100
# T1 sequence (O00519 1-579): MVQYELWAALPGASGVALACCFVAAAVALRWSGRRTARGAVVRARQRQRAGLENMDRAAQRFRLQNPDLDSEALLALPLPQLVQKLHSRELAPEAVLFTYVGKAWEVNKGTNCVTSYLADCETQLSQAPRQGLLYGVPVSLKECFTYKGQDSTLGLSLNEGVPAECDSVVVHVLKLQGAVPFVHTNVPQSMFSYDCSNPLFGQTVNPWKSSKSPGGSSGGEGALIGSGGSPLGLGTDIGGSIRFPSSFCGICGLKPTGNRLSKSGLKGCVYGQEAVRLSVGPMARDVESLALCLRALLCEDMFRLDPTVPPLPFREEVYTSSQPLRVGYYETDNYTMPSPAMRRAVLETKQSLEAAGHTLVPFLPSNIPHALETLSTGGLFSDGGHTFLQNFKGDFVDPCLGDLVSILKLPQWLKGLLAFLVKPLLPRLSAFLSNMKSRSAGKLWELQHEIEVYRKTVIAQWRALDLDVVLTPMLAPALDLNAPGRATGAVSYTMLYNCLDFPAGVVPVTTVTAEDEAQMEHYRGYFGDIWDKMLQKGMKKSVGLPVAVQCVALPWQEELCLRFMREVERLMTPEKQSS
# Assay: Inhibition of human FAAH (AMC arachidonoyl amide fluorescence assay)
# Format: biochemical
# Settings: inhibitor preincubated 30 minutes at room temperature; 20 μM AMC arachidonoyl amide; 4 hours; read-out: Activity (Ki, inhibitors of human FAAH)
# How it was run: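 Solubilized membrane fraction from COS-7 cells transiently expressing human FAAH (0.05 mg/mL final) preincubated 30 min at room temperature with 3-fold serially diluted inhibitor, then reacted 4 h at room temperature with 20 μM AMC arachidonoyl amide. Stopped with α-ketoheterocycle; fluorescence read. Ki from single-site competitive fit, Km fixed at 12 μM.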
row,Structure (SMILES),Ki [nM]
1,"c1ccc(Oc2ccc(C3CC(Oc4cnc5ccccc5c4)=NO3)cc2)cc1 (single isomer, unassigned) [I-42]",≤ 100
2,"Fc1cncc(OC2=NOC(c3ccc(Oc4ccccc4)cc3)C2)c1 (single isomer, unassigned) [I-43]",≤ 100
3,"Cn1ccc2cc(OC3=NOC(c4ccc(Oc5ccccc5)cc4)C3)cnc21 (single isomer, unassigned) [I-44]",100 to 1000
4,"COC1=NOC(c2ccc(Oc3ccccc3)cc2)C1 (single isomer, unassigned) [I-45]",≥ 1000
5,"COC(=O)c1cncc(OC2=NOC(c3ccc(OC(F)(F)F)cc3)C2)c1 (single isomer, unassigned) [I-46]",100 to 1000
6,"NC(=O)c1cncc(OC2=NOC(c3ccc(Oc4ccccc4)cc3)C2)c1 (single isomer, unassigned) [I-47]",100 to 1000
7,"BrC1=NO[C@H](Cc2ccccc2)C1 (single isomer, unassigned) [I-48]",≥ 1000
8,"BrC1=NOC(CCc2ccccc2)C1 (single isomer, unassigned) [I-49]",100 to 1000
9,"BrC1=NOC(CCOc2ccccc2)C1 (single isomer, unassigned) [I-50]",100 to 1000
10,"BrC1=NOC(CCCOc2ccccc2)C1 (single isomer, unassigned) [I-51]",≤ 100
11,"BrC1=NOC(COCCc2ccccc2)C1 (single isomer, unassigned) [I-52]",100 to 1000
12,CC1C(Br)=NOC1c1ccc(Oc2ccccc2)cc1 (centres unmarked) [I-78],≤ 100
13,CC1C(Br)=NOC1c1ccc(Oc2ccccc2)cc1 (centres unmarked) [I-82],100 to 1000
14,Nc1ccc(OC2=NOC(c3ccc(Oc4ccccc4)cc3)C2)cn1 (centres unmarked) [I-93],≤ 100
